Structures can show the parent of a compound that is named as a salt. Where two headings read alike, the source gives them in different places.
Biological target: SARS-CoV-2 3CLpro (Severe acute respiratory syndrome coronavirus 2, UniProt P0DTD1)
Assay: biochemical
Format: biochemical
Parameters: Replicate_1 / Replicate_2 / mean / mean (LOPAC_screen_w_protease): unit not given here
Conditions: for inhibition at 5 µM: 4 h
[1] = sheet LOPAC_screen_w_protease, LOPAC1280 primary screen with protease, 5 µM compound, mean of the two replicates, read-out: mean
[2] = sheet LOPAC_screen_w_protease, LOPAC1280 primary screen with protease, 5 µM compound, replicate 1, read-out: Replicate_1
[3] = sheet LOPAC_screen_w_protease, LOPAC1280 primary screen with protease, 5 µM compound, replicate 2, read-out: Replicate_2
[4] = sheet LOPAC_screen_w_protease, primary screen of LOPAC1280 at 5 µM with protease, mean of the two replicates, read-out: mean
[5] = sheet LOPAC_screen_w_protease, primary screen of LOPAC1280 at 5 µM with protease, replicate 1, read-out: Replicate_1
[6] = sheet LOPAC_screen_w_protease, primary screen of LOPAC1280 at 5 µM with protease, replicate 2, read-out: Replicate_2
[7] = sheet LOPAC_screen_w_protease, primary screen with protease, compound at 5 µM, mean of two replicates
[8] = sheet LOPAC_screen_w_protease, primary screen with protease, compound at 5 µM, replicate 1
[9] = sheet LOPAC_screen_w_protease, primary screen with protease, compound at 5 µM, replicate 2
[10] = LOPAC1280 primary screen with protease, 5 µM compound, mean of the two replicates
[11] = LOPAC1280 primary screen with protease, 5 µM compound, replicate 1
[12] = sheet LOPAC_screen_w_protease, LOPAC1280 primary screen with protease, 5 µM compound, mean of the two replicates
[13] = sheet LOPAC_screen_w_protease, LOPAC1280 primary screen with protease, 5 µM compound, replicate 1
[14] = sheet LOPAC_screen_w_protease, LOPAC1280 primary screen with protease, 5 µM compound, replicate 2

## CC1(C)NC(=O)N(c2ccc([N+](=O)[O-])c(C(F)(F)F)c2)C1=O [Nilutamide]
Sheet LOPAC_screen_w_protease, LOPAC1280 primary screen at 5 µM, with protease, mean of the two replicates, read-out: mean
  inhibition at 5 µM: 0.761%
Sheet LOPAC_screen_w_protease, LOPAC1280 primary screen at 5 µM, with protease, replicate 1, read-out: Replicate_1
  inhibition at 5 µM: 2.22%
Sheet LOPAC_screen_w_protease, LOPAC1280 primary screen at 5 µM, with protease, replicate 2, read-out: Replicate_2
  inhibition at 5 µM: -0.697%

## CS(=O)(=O)Nc1ccc([N+](=O)[O-])cc1Oc1ccccc1 [Nimesulide]
read-out: Replicate_1
  inhibition at 5 µM: 4.73%
read-out: Replicate_2
  inhibition at 5 µM: 4.45%
read-out: mean
  inhibition at 5 µM: 4.59%

## COCCOC(=O)C1=C(C)NC(C)=C(C(=O)OC(C)C)C1c1cccc([N+](=O)[O-])c1 (centres unmarked) [Nimodipine]
[1]
  inhibition at 5 µM: 4.81%
[2]
  inhibition at 5 µM: 3.58%
[3]
  inhibition at 5 µM: 6.04%

## Cc1ncc(CNC(=O)N(CCCl)N=O)c(N)n1 [Nimustine hydrochloride]
[4]
  inhibition at 5 µM: 3.43%
[5]
  inhibition at 5 µM: 3.89%
[6]
  inhibition at 5 µM: 2.97%

## CNCCC(Oc1ccccc1OC)c1ccccc1 (centres unmarked) [Nisoxetine hydrochloride]
[1]
  inhibition at 5 µM: 4.4%
[2]
  inhibition at 5 µM: 3.53%
[3]
  inhibition at 5 µM: 5.27%

## CCOC(=O)C1=C(C)NC(C)=C(C(=O)OC)C1c1cccc([N+](=O)[O-])c1 (centres unmarked) [Nitrendipine]
[1]
  inhibition at 5 µM: 4.54%
[2]
  inhibition at 5 µM: 3.89%
[3]
  inhibition at 5 µM: 5.19%

## COC(=O)Nc1nc2ccc(C(=O)c3cccs3)cc2[nH]1 [Nocodazole]
[1]
  inhibition at 5 µM: 4.68%
[2]
  inhibition at 5 µM: 2.87%
[3]
  inhibition at 5 µM: 6.49%

## O=C1OC(=O)[C@H]2[C@@H]1[C@@H]1CC[C@H]2O1 [Norcantharidin]
[7]
  mean: 2.796
[8]
  Replicate_1: 1.684
[9]
  Replicate_2: 3.909

## CNCCC=C1c2ccccc2CCc2ccccc21 [Nortriptyline hydrochloride]
read-out: Replicate_1
  inhibition at 5 µM: 2.88%
read-out: Replicate_2
  inhibition at 5 µM: 1.57%
read-out: mean
  inhibition at 5 µM: 2.22%

## COc1ccc2c(c1OC)C(=O)O[C@@H]2[C@H]1c2c(cc3c(c2OC)OCO3)CCN1C.Cl [Noscapine hydrchloride]
[10]
  mean (LOPAC_screen_w_protease): 1.752
[11]
  Replicate_1 (LOPAC_screen_w_protease): 0.9869

## CC(CCc1ccccc1)NC(C)C(O)c1ccc(O)cc1 (centres unmarked) [Nylidrin hydrochloride]
[4]
  inhibition at 5 µM: 3.76%
[5]
  inhibition at 5 µM: 4.88%
[6]
  inhibition at 5 µM: 2.65%

## Nc1nc(OCc2ccccc2)c2nc[nH]c2n1 [O6-benzylguanine]
LOPAC1280 primary screen with protease, 5 µM compound, replicate 1, read-out: Replicate_1 (LOPAC_screen_w_protease)
  inhibition at 5 µM: 0.721%
LOPAC1280 primary screen with protease, 5 µM compound, replicate 2, read-out: Replicate_2 (LOPAC_screen_w_protease)
  inhibition at 5 µM: 2.08%
LOPAC1280 primary screen with protease, 5 µM compound, mean of two replicates
  mean (LOPAC_screen_w_protease): 1.401

## COc1ccc2[nH]cc(CCN)c2c1.Cl [O-Methylserotonin hydrochloride]
[10]
  mean (LOPAC_screen_w_protease): 2.11
[11]
  Replicate_1 (LOPAC_screen_w_protease): 3.3171
LOPAC1280 primary screen with protease, 5 µM compound, replicate 2
  Replicate_2 (LOPAC_screen_w_protease): 0.9034

## N[C@@H](COP(=O)(O)O)C(=O)O [O-Phospho-L-serine]
[12]
  mean: 5.279
[13]
  Replicate_1: 3.193
[14]
  Replicate_2: 7.365

## O=c1onc2cnc3ccccc3n12 [ODQ]
[7]
  mean: 2.809
[8]
  Replicate_1: 2.693
[9]
  Replicate_2: 2.926

## CC1OC(C[N+](C)(C)C)CS1.[I-] (centres unmarked) [OXA-22 iodide]
[12]
  mean: 6.327
[13]
  Replicate_1: 7.065
[14]
  Replicate_2: 5.588

## CC1COc2c(N3CCN(C)CC3)c(F)cc3c(=O)c(C(=O)O)cn1c23 (centres unmarked) [Ofloxacin]
[1]
  inhibition at 5 µM: 6.37%
[2]
  inhibition at 5 µM: 5.61%
[3]
  inhibition at 5 µM: 7.14%

## Cn1cnc2c(NCc3ccccc3)nc(NCCO)nc21 [Olomoucine]
[1]
  inhibition at 5 µM: 4.92%
[2]
  inhibition at 5 µM: 3.02%
[3]
  inhibition at 5 µM: 6.83%

## C[C@@H]1O[C@@H](O[C@H]2C[C@@H](O)[C@]3(CO)[C@H]4[C@H](O)C[C@]5(C)[C@@H](C6=CC(=O)OC6)CC[C@]5(O)[C@@H]4CC[C@]3(O)C2)[C@H](O)[C@H](O)[C@H]1O [Ouabain]
read-out: Replicate_1
  inhibition at 5 µM: 3.98%
read-out: Replicate_2
  inhibition at 5 µM: 1.68%
read-out: mean
  inhibition at 5 µM: 2.83%

## O=C(O)CCc1nc(-c2ccccc2)c(-c2ccccc2)o1 [Oxaprozin]
read-out: Replicate_1
  inhibition at 5 µM: 3.59%
read-out: Replicate_2
  inhibition at 5 µM: 3.25%
read-out: mean
  inhibition at 5 µM: 3.42%

## O=c1[nH]c2ccccc2n1CCCN1CCN(C(c2ccccc2)c2ccccc2)CC1 [Oxatomide]
[1]
  inhibition at 5 µM: 5.24%
[2]
  inhibition at 5 µM: 4.62%
[3]
  inhibition at 5 µM: 5.86%

## NC(=O)CN1CC(O)CC1=O (centres unmarked) [Oxiracetam]
[4]
  inhibition at 5 µM: 3.68%
[5]
  inhibition at 5 µM: 3.64%
[6]
  inhibition at 5 µM: 3.71%

## CCn1cc(C(=O)O)c(=O)c2cc3c(cc21)OCO3 [Oxolinic acid]
[4]
  inhibition at 5 µM: 3.24%
[5]
  inhibition at 5 µM: 3.47%
[6]
  inhibition at 5 µM: 3%

## C[N+](C)(C)CC#CCN1CCCC1=O [Oxotremorine methiodide]
Sheet LOPAC_screen_w_protease, primary screen at 5 µM, mean of two replicates, read-out: mean (LOPAC screen with protease)
  inhibition at 5 µM: 7.27%
Sheet LOPAC_screen_w_protease, primary screen at 5 µM, replicate 1, read-out: Replicate_1 (LOPAC screen with protease)
  inhibition at 5 µM: 7.16%
Sheet LOPAC_screen_w_protease, primary screen at 5 µM, replicate 2, read-out: Replicate_2 (LOPAC screen with protease)
  inhibition at 5 µM: 7.38%

## O=C(O)/C=C/C(=O)O.O=C(O)/C=C/C(=O)O.O=C(O)/C=C/C(=O)O.O=C1CCCN1CC#CCN1CCCC1.O=C1CCCN1CC#CCN1CCCC1 [Oxotremorine sesquifumarate salt]
[12]
  mean: 4.476
[13]
  Replicate_1: 3.394
[14]
  Replicate_2: 5.5586

## CCN(CC)CC#CCOC(=O)C(O)(c1ccccc1)C1CCCCC1 (centres unmarked) [Oxybutynin Chloride]
[1]
  inhibition at 5 µM: 4.78%
[2]
  inhibition at 5 µM: 4.91%
[3]
  inhibition at 5 µM: 4.65%

## Cc1cc(C(C)(C)C)c(O)c(C)c1CC1=NCCN1 [Oxymetazoline hydrochloride]
[1]
  inhibition at 5 µM: 5.36%
[2]
  inhibition at 5 µM: 4.63%
[3]
  inhibition at 5 µM: 6.09%

## Nc1ccc(CCN2CCN(c3cccc(C(F)(F)F)c3)CC2)cc1 [PAPP]
Sheet LOPAC_screen_w_protease, LOPAC1280 primary screen at 5 µM, with protease, mean of two replicates
  mean: -1.528
Sheet LOPAC_screen_w_protease, LOPAC1280 primary screen at 5 µM, with protease, replicate 1
  Replicate_1: -1.095
Sheet LOPAC_screen_w_protease, LOPAC1280 primary screen at 5 µM, with protease, replicate 2
  Replicate_2: -1.96

## COc1cccc(-c2cc(=O)c3ccccc3o2)c1N [PD 98,059]
  Replicate_1: 3.541
  Replicate_2: 1.402
  mean: 2.471

## Cc1cccc(C(=O)NCN2CCN(c3ccccc3C#N)CC2)c1.O=C(O)/C=C\C(=O)O [PD 168,077 maleate]
Sheet LOPAC_screen_w_protease, LOPAC1280 at 5 µM, mean of two replicates
  mean: 1.169
Sheet LOPAC_screen_w_protease, LOPAC1280 at 5 µM, replicate 1
  Replicate_1: 0.792
Sheet LOPAC_screen_w_protease, LOPAC1280 at 5 µM, replicate 2
  Replicate_2: 1.545

## CCC(C)N(C)C(=O)c1cc2ccccc2c(-c2ccccc2Cl)n1 (centres unmarked) [PK 11195]
Sheet LOPAC_screen_w_protease, primary screen with protease, compound at 5 µM, mean of two replicates, read-out: mean
  inhibition at 5 µM: 3.14%
Sheet LOPAC_screen_w_protease, primary screen with protease, compound at 5 µM, replicate 1, read-out: Replicate_1
  inhibition at 5 µM: 1.87%
Sheet LOPAC_screen_w_protease, primary screen with protease, compound at 5 µM, replicate 2, read-out: Replicate_2
  inhibition at 5 µM: 4.41%

## Cc1nc(N=Nc2ccc(S(=O)(=O)O)cc2S(=O)(=O)O)c(COP(=O)(O)O)c(C=O)c1O [PPADS]
Sheet LOPAC_screen_w_protease, primary screen with protease, 5 µM, mean of two replicates
  mean: 0.05886
Sheet LOPAC_screen_w_protease, primary screen with protease, 5 µM, replicate 1
  Replicate_1: -0.6012
Sheet LOPAC_screen_w_protease, primary screen with protease, 5 µM, replicate 2
  Replicate_2: 0.7189

## Cc1nc(N=Nc2cc(S(=O)(=O)[O-])c3cc([N+](=O)[O-])cc(S(=O)(=O)[O-])c3c2)c(COP(=O)([O-])[O-])c(C=O)c1O.[Na+].[Na+].[Na+].[Na+] [PPNDS tetrasodium]
[12]
  mean: 5.708
[13]
  Replicate_1: 4.956
[14]
  Replicate_2: 6.46

## O=C(OCCN1CCOCC1)C1(c2ccccc2)CCCCC1 [PRE-084]
Sheet LOPAC_screen_w_protease, primary screen of LOPAC1280 at 5 µM with protease, mean of the two replicates
  mean: 3.777
Sheet LOPAC_screen_w_protease, primary screen of LOPAC1280 at 5 µM with protease, replicate 1
  Replicate_1: 2.6752
Sheet LOPAC_screen_w_protease, primary screen of LOPAC1280 at 5 µM with protease, replicate 2
  Replicate_2: 4.879

## CC(=O)O[C@H]1C[C@@H]2CC[C@@H]3[C@H](CC[C@@]4(C)[C@H]3C[C@H]([N+]3(C)CCCCC3)[C@@H]4OC(C)=O)[C@@]2(C)C[C@@H]1[N+]1(C)CCCCC1 [Pancuronium bromide]
[4]
  inhibition at 5 µM: 3.86%
[5]
  inhibition at 5 µM: 2.32%
[6]
  inhibition at 5 µM: 5.41%

## COc1ccc(Cc2nccc3cc(OC)c(OC)cc23)cc1OC [Papaverine hydrochloride]
[1]
  inhibition at 5 µM: 5.63%
[2]
  inhibition at 5 µM: 5.9%
[3]
  inhibition at 5 µM: 5.37%
